Where a name gives a salt, the structure may show the parent alone.
Assays:
pNL4-3 SP1-V7A = test: CA-SP1 accumulation assay, SP1-V7A derivative; assay type: cell-based, HIV-1; settings: HeLa or 293T cells; for % CA-SP1 Accumulation 10 nM SP1 V7A: 10 nM compound
Method in brief: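 HeLa or 293T cells transfected with proviral clone, maturation inhibitors present through transfection and labeling; at 24 h, [^35S]Met/Cys labeling 2-3 h. Virions pelleted by ultracentrifugation, lysed, CA and CA-SP1 resolved by SDS-PAGE and quantified by phosphorimaging.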

HIV-1 clade C pindieC1 = test: CA-SP1 accumulation assay (immunoblot), clade C pindieC1; assay type: cell-based; settings: head prints K3016
Description: Compound evaluation was performed against a panel of HIV-1 Clade C isolates K3016, pindieC1, and ZM247. The three isolates all contain the SP1-A7V. Clade B NL4-3 was included as the […] control.
(§1) Plasmids, tissue culture and transfections. HIV-1 clade B molecular clone NL4-3 and cade C clones K3016, ZM247 were obtained from Dr. Christina Ochsenbauer, University of Alabama, USA. Both K3016 and ZM247 were constructed using viral strains from South Africa. The HIV-1 clade C molecular clone pindieC1 was obtained from Dr. Uday Ranga, JNCASR, India. This clone was constructed using an HIV strain from India. HEK-293T and TZM-bl cells were propagated in Dulbecco's modified Eagle's medium (DM4EM) containing 10% fetal bovine serum (FBS). HUT-R5 cells were propagated in RPM 1640 medium supplemented with 10% FBS. For transfections, HEK-293T cells were grown in six well plates to about 80% confluency. Cells were transfected using Lipofectamine 2000 (invitrogen, USA) following manufacturer's recommendations. For viral replication assays, HUT-R5 T-cells were transfected using DEAE dextran as described in Waheed, A. A., Ono, A., and Freed, E. O.; Methods for the study of HIV-1 assembly; Methods Mol. Biol. Clifton N.J. 485, 163-184 (2009).
(§2) Preparation of viral stocks. Virus stocks were prepared by transfecting HEK-293T cells with HIV-1 DNAs (3 μg). 24 h post-transfection, the culture medium was replaced with fresh DMEM and incubated for another 2 h. Compounds tested were maintained in the culture throughout transfection. The culture supernatant was centrifuged at 845×g for 3 min to remove cellular debris. The clarified supernatants were filtered (pore size 0.45 µm filter disc) to remove residual cellular contaminants. For determination of viral infectivity, the un-concentrated virus was used to infect TZM-bl cells. For the CA-SP1 accumulation assay, the virus was pelleted by ultra-centrifugation at 210,100×g for 1 h at 4° C. using SW41Ti rotor (Beckman Coulter, USA).
CA-SP1 accumulation assay. To measure accumulation of CA-SP1, immunoblot analysis of virus-associated proteins was performed. The virus pellet was resuspended in radioimmunoprecipitation assay (RIPA) buffer (50 mM Tris-HCl pH 8.0, 150 mM sodium chloride, 1.0% NP-40, 0.5% sodium deoxycholate, 0.1% SDS) containing 1×protease inhibitor cocktail (Roche, Germany). The viral lysates were subjected to SDS-polyacrylamide gel electrophoresis (15% gel). Proteins were transferred to polyvinylidene difluoride membranes and reacted with HIV-IgG obtained from the NIH AIDS Reagent Program (catalog no. 3957) followed by incubation with HRP-conjugated anti-human secondary antibodies (GE Healthcare, UK). The proteins were visualized by enhanced chemiluminescence (Pierce, USA) and the bands were quantified using ImageJ software (http://imagej.nih.gov/ij/).

HIV-1 clade B NL4-3 = test: Viral infectivity assay in TZM-bl cells (luciferase), NL4-3; assay type: cell-based; settings: DMSO = 100
Source text: as §1, §2
(§3) Viral infectivity assays. The virus stocks were normalized for p24 antigen using an HIV-1 p24 Antigen Capture kit (ABL, USA). Equal amounts of virus were used to infect TZM-bl cells (5×10^4/well) in the presence of 20 μg DEAE-dextran per mL in 24 well plate. Single-round infectivity assays were performed as previously described in Checkley, M. A. et al; Reevaluation of the Requirement for TIP47 in Human Immunodeficiency Virus Type 1 Envelope Glycoprotein Incorporation; J. Virol. 87, 3561-3570 (2013). The luciferase activity in the cell lysates was measured using the Steady-Glo luciferase assay kit (Promega, USA) following manufacturer's recommendations.

HIV-1 clade C K3016 = test: Viral infectivity assay in TZM-bl cells (luciferase), K3016; assay type: cell-based; settings: DMSO = 100
Source text: as §1, §2, §3

[1] = Cytotoxicity assay CellTitre-Blue, HUT-R5; assay type: cell-based; settings: human, HUT-R5 cells, read-out: Cytotoxicity CC50 HUTR5
Description: Cytotoxicity assays. Cytotoxicity assays were performed using the CellTitre-Blue Cell Viability Assay kit (Promega, USA) as per manufacturer's recommendations. HEK-293T and HUT-R5 cell lines were maintained in the presence of serial dilutions of the compounds for 4 days and treated with CellTitre-Blue reagent for 4 h at 37° C. The fluorescent signals were recorded at 530/25excision and 590/35emission using BioTek microplate reader. The 50% cytotoxicity concentrations (CC50s) were determined as the compound concentrations that reduced the fluorescent signals to 50% relative to DMSO only controls.

Row | SMILES | % CA-SP1 Accumulation 100 nM SP1 V7A (pNL4-3 SP1-V7A; 100 nM compound) | % CA-SP1 Accumulation 10 nM SP1 V7A (pNL4-3 SP1-V7A) | % CA-SP1 Accumulation K3016 10 nM (HIV-1 clade C pindieC1) | % CA-SP1 Accumulation K3016 100 nM (HIV-1 clade C pindieC1) | % Relative Infectivity NL4-3 10 nM (HIV-1 clade B NL4-3) | % Relative Infectivity NL4-3 100 nM (HIV-1 clade B NL4-3) | % Relative Infectivity K3016 10 nM (HIV-1 clade C K3016) | % Relative Infectivity K3016 100 nM (HIV-1 clade C K3016) | CC50 at 4 days [1]
1 | C=C(C)[C@@H]1CC[C@]2(CCNC3CCN(CCO)CC3)CC[C@]3(C)[C@H](CC[C@@H]4[C@@]5(C)CC[C@H](OC(=O)CC(C)(C)CC(=O)O)C(C)(C)[C@@H]5CC[C@]43C)[C@@H]12 [Compound 51f, (3β)-17-[2-[[1-(2-Hydroxyethyl)piperidin-4-yl]amino]ethyl]-28-norlup-20(29)-en-3-ol, 3-(Hydrogen 3,3-Dimethylpentanedioate), Bis(trifluoroacetate) Salt] | 43.4 (3) % |  |  |  |  |  |  |  | 
2 | C=C(C)[C@@H]1CC[C@]2(CCNCCN3CCN(S(C)(=O)=O)CC3)CC[C@]3(C)[C@H](CC[C@@H]4[C@@]5(C)CC[C@H](OC(=O)CC(C)(C)C(=O)O)C(C)(C)[C@@H]5CC[C@]43C)[C@@H]12 [Compound 51ff, (3β)-17-[2-[[2-[4-(Methylsulfonyl)piperazin-1-yl]ethyl]amino]ethyl]-28-norlup-20(29)-en-3-ol, 3-(1-Hydrogen 2,2-Dimethylbutanedioate)] |  | 31.1 (3) % | 36.7% | 39.1% | 20.1% | 2.9% | 43.3% | 24.4% | > 500 nM
3 | C=C(C)[C@@H]1CC[C@]2(CCNCCN3CCS(=O)(=O)CC3)CC[C@]3(C)[C@H](CC[C@@H]4[C@@]5(C)CC[C@H](OC(=O)CC(C)(C)C(=O)O)C(C)(C)[C@@H]5CC[C@]43C)[C@@H]12 [Compound 51ee, (3β)-17-[[[2-[2-(1,1-Dioxothiomorpholin-4-yl)]Ethyl]Amino]Ethyl]-28-norlup-20(29)-en-3-ol, 3-(1-Hydrogen 2,2-Dimethylbutanedioate)] |  | 35.1% | 41.8% | 48.3% | 15.4% | 4.4% | 32.0% | 7.8% | > 500 nM
4 | C=C(C)[C@@H]1CC[C@]2(CCNCCN3CCN(Cc4ccccc4)CC3)CC[C@]3(C)[C@H](CC[C@@H]4[C@@]5(C)CC[C@H](OC(=O)CC(C)(C)C(=O)O)C(C)(C)[C@@H]5CC[C@]43C)[C@@H]12 [Compound 51hh, (3β)-17-[2-[[2-[4-(Phenylmethyl)piperazin-1-yl]ethyl]amino]ethyl]-28-norlup-20(29)-en-3-ol, 3-(1-Hydrogen 2,2-Dimethylbutanedioate)] |  | 42.1 (5) % | 26.7% | 43.8% | 41.4% | 3.3% | 48.6% | 32.3% | > 500 nM
